We go through 5 compounds from PMC12340070, “A novel modulator of IL-6R prevents inflammation-induced preterm birth and improves newborn outcome” (EMBO Molecular Medicine, 2025).

The subject of data set [1] is placenta. The experiment in a line: HSJ633 biodistribution in placenta (fluorescence). Particulars: 1 mg/kg s.c., LPS 10 μg i.p., GD17, 4 h, pregnant mice; 11–12 samples per group. Format: in vivo, mouse.
Experimental: Mice were euthanized after 4 h to analyze tissue distribution of the fluorescent-tagged compounds. Placentas were collected and fixed in 4% paraformaldehyde for 1 day and transferred into 30% sucrose for another day. Placental cryosections were stained with DAPI (0.0002 mg/mL) for nuclei. Images were captured using a ×20 objective with a Zeiss AxioScan.Z1. Fluorescence analysis was performed using ImageJ.
For data set [2], the target named is T1, IL-6R (HEK-Blue IL-6 cells) (Homo sapiens, UniProt P08887).
T1 construct: host or cells: HEK-Blue IL-6 cells (HEK293-derived, H. sapiens)
As to the kind of experiment: IL-6-induced IL-1β, TNF-α and IL-6 mRNA in HEK-Blue IL-6 cells, dose-response (RT-qPCR). It counts as cell-based. The method, then: For in vitro dose–response experiments, HEK-blue IL-6 cells were allowed to acclimate for two passages to complete the stabilization of the receptor before experiments. Prior to experiments, cells at 70% of confluence were added to six-well plates, then starved overnight before media was changed 30 min prior to beginning the stimulation. After the 30 min pre-incubation, the cells were treated with HSJ633 (from 1 × 10^−12 to 1 × 10^−4 M) allowed to sit for 15 min, treated with 3.86 nM of IL-6, and incubated for 6 h. Cell lysis and mRNA extraction were performed by adding RiboZol. Samples were stored at −20 °C until RNA extraction and quantification (see section below).
For RT-qPCR experiments, cells were plated in 6-well plates at 70% of confluence and starved overnight. Cells were treated respectively with HSJ633, HSJ630, HSJ631, HSJ634, HSJ635, HSJ639 (1 × 10^−6 M), or TCZ (3.44 μM, based on validated doses (Sahraoui et al, [2014])) for TNF-α expression. For hIL-1, hIL-6, and hTNF-α expression, cells were treated with HSJ633 using concentrations ranging from 10^−11 to 10^−4 M, allowing for equilibrium over 15 min. Cells were then treated with […] of IL-6 for 6 h for both experiments. Cell lysis was performed by adding RIBOzol. Samples were stored at −20 °C until analysis by quantitative PCR. To determine the degree of phosphorylation of different proteins (STAT3, ERK, AKT, and p38), HEK-Blue IL-6 cells were treated with HSJ633 (10^−6 M), TCZ (3.44 uM) or vehicle for 30 min in DMEM only. Human IL-6 (3.86 nM) was added to the medium for 15 min to stimulate IL-6R pathways leading to STAT3, ERK, and AKT activation. For p38 activation, 25 min of stimulation with IL-6 was required. The wells were charged with radioimmunoprecipitation assay buffer (RIPA) at a concentration of 1×, cOmplete EDTA-free Protease Inhibitor Cocktail final concentration 1×, and phenylmethanesulfonyl fluoride (PMSF) 1 mM. Samples were shaken for 30 min followed by centrifugation at 12,000 RPM at 4 °C for 20 min to harvest the proteins. Proteins were stored at −80 °C until analysis by immunoblotting.
Samples (30 mg) of uterus, placenta, fetal membranes, as well as the fetal lung, brain, and intestine, were thawed and deposited in lysis buffer according to the manufacturer’s protocol (Qiagen RNeasy Plus Mini Kit). Cell lysis and RNA extraction were performed directly into RiboZol. RNA was extracted from tissue fragments and cells according to the manufacturer’s protocol. RNA was quantified with a NanoDrop 1000 spectrophotometer and samples (500 ng) were treated with DNAse I (1U). RNA was used to synthesize cDNA using iScript reverse transcription superMix. Quantitative gene expression analysis was performed on a Light Cycler 96 with iTaq Universal SYBR Green Supermix. […]
Target sequence in this assay (P08887 20-468): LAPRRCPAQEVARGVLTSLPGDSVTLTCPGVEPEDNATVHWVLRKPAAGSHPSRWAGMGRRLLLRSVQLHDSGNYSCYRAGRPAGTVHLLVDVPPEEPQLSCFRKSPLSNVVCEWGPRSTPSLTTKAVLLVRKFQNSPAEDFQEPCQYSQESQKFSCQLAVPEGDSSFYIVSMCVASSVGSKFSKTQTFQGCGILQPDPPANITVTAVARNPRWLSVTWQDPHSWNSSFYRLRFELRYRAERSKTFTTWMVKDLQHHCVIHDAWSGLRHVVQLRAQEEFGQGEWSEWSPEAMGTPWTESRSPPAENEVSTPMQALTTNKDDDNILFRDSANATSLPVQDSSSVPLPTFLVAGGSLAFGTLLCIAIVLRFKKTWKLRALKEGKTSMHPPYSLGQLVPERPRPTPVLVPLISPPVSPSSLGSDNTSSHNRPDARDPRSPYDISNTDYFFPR
Target sequence in this assay (P40189 23-918 partner): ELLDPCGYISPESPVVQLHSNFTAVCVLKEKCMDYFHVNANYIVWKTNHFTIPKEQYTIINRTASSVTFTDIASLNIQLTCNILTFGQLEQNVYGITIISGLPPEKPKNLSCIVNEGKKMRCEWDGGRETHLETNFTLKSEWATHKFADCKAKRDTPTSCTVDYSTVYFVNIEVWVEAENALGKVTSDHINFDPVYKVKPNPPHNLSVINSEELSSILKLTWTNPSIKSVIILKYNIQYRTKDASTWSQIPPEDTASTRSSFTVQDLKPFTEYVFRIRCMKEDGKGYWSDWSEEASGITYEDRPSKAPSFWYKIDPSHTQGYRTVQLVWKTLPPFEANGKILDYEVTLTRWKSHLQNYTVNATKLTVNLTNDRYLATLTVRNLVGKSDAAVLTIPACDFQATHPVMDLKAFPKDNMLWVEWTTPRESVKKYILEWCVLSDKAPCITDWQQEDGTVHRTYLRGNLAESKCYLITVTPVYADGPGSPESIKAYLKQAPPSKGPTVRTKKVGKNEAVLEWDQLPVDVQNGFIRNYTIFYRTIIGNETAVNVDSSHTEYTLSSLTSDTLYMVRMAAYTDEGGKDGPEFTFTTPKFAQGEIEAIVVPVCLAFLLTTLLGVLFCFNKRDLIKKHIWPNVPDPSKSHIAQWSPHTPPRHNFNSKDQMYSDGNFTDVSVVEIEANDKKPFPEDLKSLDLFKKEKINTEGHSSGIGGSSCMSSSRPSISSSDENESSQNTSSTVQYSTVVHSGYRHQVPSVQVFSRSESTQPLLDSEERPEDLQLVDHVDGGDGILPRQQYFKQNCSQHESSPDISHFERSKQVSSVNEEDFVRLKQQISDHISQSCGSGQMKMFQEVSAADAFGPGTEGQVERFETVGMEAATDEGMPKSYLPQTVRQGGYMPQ
Target sequence in this assay (P05231 30-212 partner): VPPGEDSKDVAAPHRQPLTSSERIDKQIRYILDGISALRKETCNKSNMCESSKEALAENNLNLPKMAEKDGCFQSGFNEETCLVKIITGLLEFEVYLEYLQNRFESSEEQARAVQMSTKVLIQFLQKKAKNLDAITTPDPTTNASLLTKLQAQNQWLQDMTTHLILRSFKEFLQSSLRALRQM

Data set [3] addresses T1, IL-6R (HEK-Blue IL-6 cells). As to the kind of experiment: [125I]-HSJ633 binding and displacement on HEK-Blue IL-6 cells. The conditions noted are these: 3–4 samples per group. The method, then: (§1) The Bolton–Hunter reaction was utilized to conjugate the N-hydroxysuccinimide ester of 3-(4-hydroxyphenyl) propionic acid, a tyrosine-like residue, to primary amines as per the manufacturer’s instructions. Briefly, the peptide was dissolved in modification buffer (pH 9.0), then 100 μL of Bolton–Hunter Reagent was added and incubated for 3 h with periodic mixing. After incubating, the solution was dialyzed in PBS using a PlusOne Mini Dialysis Kit. Then 25 μL of peptide, 80 μL of PBS, and 25 μL of I^125 were combined in a precoated tube for 15 min. The reaction was stopped, and C-18 spin columns were used to perform washes and collect the iodine-marked peptide. Radioactivity measurements were made for each batch of radioactive peptides using a Gamma counter (Packard Cobra-II Auto Gamma Counter).
(§2) The HEK-blue IL-6 cells were allowed to acclimatize for two passages to complete the stabilization of the receptor. Prior to experiments, media was changed to adjust for a maximum quantity of 500 μL per well. Subsequently, unlabeled HSJ633 (10^−4 M) was added and allowed to reach equilibrium for 15 min. HEK293 and HEK-Blue IL-6 cells were then treated with the labeled HSJ633 in a quantity equating to 50,000 CPM per well. […] All samples were measured using a Gamma counter (Packard Cobra-II Auto Gamma Counter).

For data set [4], the system named is lung parenchyma. Particulars: mouse, in vivo. The method, then:
To determine the maximal delay of administration of HSJ633, LPS was injected as previously described, and HSJ633 was either administered 2 h or 6 h after the LPS injection at GD16. Dams were consistently observed for delivery until term (G18.5–19.5), and the body weight and survival rate (if 2 or more pups are alive, the litter is considered alive) of the neonates were recorded. The prematurity rate was assessed by determining the number of dams delivering prematurely (gestation length before 18.5 days) out of the total number of dams in the same group. The pups were sacrificed at PT7 for histological analysis.
Histology was performed as described by Habelrih et al (Habelrih et al, [2023]). Images were captured using ×10 objective with a Zeiss AxioScan.Z1.

Data set [5] concerns LPS-induced preterm birth in CD-1 mice. As to the kind of experiment: STAT3 inhibitor efficacy in LPS-induced PTB: gestational length and prematurity rate. Format: in vivo, mouse. Particulars: for prevention of LPS-induced PTB: 5 mg/kg/day s.c., twice a day, GD16; for % PTB: group value; for GD (gestation day): individual dams, one per line. The method, then: Timed pregnant CD-1 mice at days 16 and 17 of gestation were anesthetized with isoflurane and given intraperitoneal (i.p.) injections of LPS (4 μg in 100 μL saline on GD16 and 6 μg in 100 μL saline on GD17, total 10 μg) or vehicle (100 μL). Doses of LPS were selected based on previous reports (Chang et al, [2011]; Elovitz and Mrinalini, [2004]; Fidel et al, [1994]; Sadowsky et al, [2006]; Salminen et al, [2008]; Urakubo et al, [2001]), preliminary dose–response experiments, and knowing that a systemic maternal infection is associated with the onset of labor (Romero et al, [2001]). A total of 100 μL of HSJ633 or HSJ639 (2 mg/kg/day), an anti-IL-6R antibody (800 μg/kg/day) or vehicle was injected subcutaneously (s.c.) 30 min before injections of LPS (to allow distribution of drugs to target tissues) and repeated twice daily until GD18.5.
Thirty minutes before administering LPS, on GD16, NSC74859 (5 mg/kg/day solubilized in 20% DMSO + water, injected twice a day s.c.) or rmgp130/Fc Chimera (10 μg i.p. on GD16 and 10 μg s.c. on GD16.5) were injected into distinct dams. The same LPS-induction PTB model as described above was used for these experiments (4 μg on GD16 + 6 μg on GD17, i.p.). Delivery was assessed until term (GD18.5–19.5).

Data set [6] concerns the target T1, IL-6R (HEK-Blue IL-6 cells). The experiment in a line: TNF-α expression in HEK-Blue IL-6 cells (RT-qPCR), peptide screening. It counts as cell-based. The conditions noted are these: IL-6 3.86 nM 6 h, peptides 1 μM, TCZ 3.44 μM, RT-qPCR normalized to 18S, 2-9 samples per group. The method, then: HEK293 and HEK-blue IL-6 cells were purchased and were used at fewer than 15 passages and tested mycoplasma negative. Cells were cultured in DMEM growth medium supplemented with 10% fetal bovine serum (FBS), 50 U/mL penicillin, and 50 μg/mL streptomycin. HEK-blue IL-6 cell media was also supplemented with HEK-Blue Selection (1:250). Ba/F3-polylinker, Ba/F3-mgp130, and Ba/F3-mgp130-IL-6Rα cells were cultured in RPMI 1640 growth medium supplemented with 10% FBS, 50 U/mL penicillin, and 50 μg/mL streptomycin. These cells were maintained in murine IL-3 at 10 ng/mL and puromycin at 1 μg/mL. Cells were cultured in standard experimental conditions (37 °C, 5% CO2).
For RT-qPCR experiments, cells were plated in 6-well plates at 70% of confluence and starved overnight. […] Samples were stored at −20 °C until analysis by quantitative PCR. […]
Samples (30 mg) of uterus, placenta, fetal membranes, as well as the fetal lung, brain, and intestine, were thawed and deposited in lysis buffer according to the manufacturer’s protocol (Qiagen RNeasy Plus Mini Kit). […] RNA was quantified with a NanoDrop 1000 spectrophotometer and samples (500 ng) were treated with DNAse I (1U). […] Quantitative gene expression analysis was performed on a Light Cycler 96 with iTaq Universal SYBR Green Supermix. […]
Target sequence in this assay (P08887 20-468): as the sequence (P08887 20-468) above
Target sequence in this assay (P40189 23-918 partner): as the sequence (P40189 23-918 partner) above
Target sequence in this assay (P05231 30-212 partner): as the sequence (P05231 30-212 partner) above

Data set [7] relates to HEK293 cells. The experiment in a line: [125I]-HSJ633 binding on HEK293 cells devoid of IL-6R. Also noted: species or system human. Particulars: [125I]-HSJ633 10^−8 M, 1.5 h; four samples per group. The method, then:
as §1, §2

Several values for one entry are separate records, joined by “and”; a condition that tells them apart may be missing. Equal entries are not always repeated. Entries after “also recorded” stand apart in the source; their conditions may differ. Where a SMILES comes first, the peptide text is derived from it. Where no end group is shown, it is not given here. [ ]: non-standard residue; d: D form.

On to `O=C1OC2(c3ccc(O)cc3Oc3cc(O)ccc32)c2ccc(N=C=S)cc21` [FITC], for which the “placental fluorescence, LPS-treated” value in data set [1] was “increase in signal intensity in the placenta”.
Broadly, the IC50 is the midpoint of a concentration-inhibition curve. As for `CC(C)[C@@H](N)C(=O)N[C@H](CCCNC(=N)N)C(=O)N[C@H](CCCCN)C(=O)N[C@H](Cc1ccccc1)C(=O)N[C@H](CCC(N)=O)C(=O)N[C@H](CC(N)=O)C(=O)N[C@H](CO)C(=O)N1CCC[C@@H]1C(=O)N[C@H](C)C(=O)O` [HSJ633] (HELM PEPTIDE1{[dV].[dR].[dK].[dF].[dQ].[dN].[dS].[dP].[dA]}$$$$V2.0), the IC50 is 0.8 nM in data set [2] (HEK-Blue IL-6, HSJ633 10^−11–10^−4 M, IL-6 3.86 nM 6 h, RT-qPCR normalized to 18S, 3–8 samples per group, read-out: IC50 hIL-1β mRNA); 2 nM in data set [2] (HEK-Blue IL-6, HSJ633 10^−11–10^−4 M, IL-6 3.86 nM 6 h, RT-qPCR normalized to 18S, 3–8 samples per group, read-out: IC50 hIL-6 mRNA); 0.2 nM in data set [2] (HEK-Blue IL-6, HSJ633 10^−11–10^−4 M, IL-6 3.86 nM 6 h, RT-qPCR normalized to 18S, 3–8 samples per group, read-out: IC50 hTNF-a mRNA); around 1 nM in data set [2] (HEK-Blue IL-6, IL-6 3.86 nM, 6 h, RT-qPCR, average over three cytokines, read-out: average IC50, inhibition of IL-6-induced expression of IL-1β, TNF-α, and IL-6 mRNA); 12 nM in data set [3] (1.5 h room temperature, gamma counter, read-out: IC50, displacement of bound [125I]-HSJ633 by cold HSJ633 (% of specific binding)). Also, the “alveolar density in lung, referee's reading of figure” value in data set [4] is on record as “causes loss of alveolar density in the lung”.
In the case of `Cc1ccc(S(=O)(=O)OCC(=O)Nc2ccc(C(=O)O)c(O)c2)cc1` [NSC74859], the “prevention of LPS-induced PTB” value is given as “successfully inhibited preterm birth” in data set [5] and “effective in preventing LPS-induced PTB” in data set [5] (listed as NCS74859). Further, the “% PTB” value in data set [5] (experiment of April 2022, less than 18 days = PTB) stood at 25.00%; in data set [5] (experiment of May 2022), 20.00%; in data set [5] (third, undated experiment), 42.86%. The “GD (gestation day)” value in data set [5] (experiment of April 2022, 18.5 days and more = term) was 18 and 18.5 and 19; in data set [5] (experiment of May 2022), 19.5 and 18.5 and 17.5; in data set [5] (third, undated experiment), 17 and 17.5 and 19 and 19.5.
For the compound “IL-6: human IL-6, Peprotech 200-06, endogenous IL-6R ligand”, the TNF-α expression entry in data set [6] is given as “induced TNF-α expression”. Moreover, the “displacement of [125I]-HSJ633 by IL-6” value in data set [3] ([125I]-HSJ633 10^−8 M, IL-6 10^−4 M) was “not by non-radioactive IL-6; also recorded: IL-6 does not displace binding of HSJ633”.
As for “[^125I]-HSJ633: HSJ633 iodine-labeled after Bolton–Hunter reaction ([dV][dR][dK][dF][dQ][dN][dS][dP][dA]; also: Bolton–Hunter reagent (3-(4-hydroxyphenyl)propionic acid) conjugated to primary amines, iodinated with 125I)”, the “[125I]-HSJ633 binding on HEK293 cells devoid of IL-6R” value in data set [7] was “No binding”.
